Data taken from the supplement of paper PMC13380429.
± gives the standard deviation of the averaged measurements.

What was measured:
Settings in all cases: 72 h
[1] = tested on: Calu-3; experiment: cell viability relative to DMSO; higher = less toxic
[2] = tested on: Vero E6; experiment: as above
[3] = tested on: HepG2; experiment: as above
[4] = tested on: Caco-2; experiment: as above
[5] = tested on: U2OS; experiment: as above
[6] = tested on: Calu-3; experiment: relative viability EC50 (midpoint between 100% and the lowest measured viability); higher = less toxic
[7] = tested on: Vero E6; experiment: as above
[8] = tested on: HepG2; experiment: as above
[9] = tested on: Caco-2; experiment: as above
[10] = tested on: U2OS; experiment: as above
[11] = tested on: Calu-3; experiment: drug sensitivity score (DSS) for viability; higher = more toxic; extreme values may be limits of the assay
[12] = tested on: Vero E6; experiment: as above
[13] = tested on: HepG2; experiment: as above
[14] = tested on: Caco-2; experiment: as above
[15] = tested on: U2OS; experiment: as above

SMILES | cell viability ([1]; 1 nM) | cell viability ([1]; 10 nM) | cell viability ([1]; 100 nM) | cell viability ([1]; 1000 nM) | cell viability ([1]; 10000 nM) | cell viability ([2]; 1 nM) | cell viability ([2]; 10 nM) | cell viability ([2]; 100 nM) | cell viability ([2]; 1000 nM) | cell viability ([2]; 10000 nM) | cell viability ([3]; 1 nM) | cell viability ([3]; 10 nM) | cell viability ([3]; 100 nM) | cell viability ([3]; 1000 nM) | cell viability ([3]; 10000 nM) | cell viability ([4]; 1 nM) | cell viability ([4]; 10 nM) | cell viability ([4]; 100 nM) | cell viability ([4]; 1000 nM) | cell viability ([4]; 10000 nM) | cell viability ([5]; 1 nM) | cell viability ([5]; 10 nM) | cell viability ([5]; 100 nM) | cell viability ([5]; 1000 nM) | cell viability ([5]; 10000 nM) | relative viability EC50 [6] | relative viability EC50 [7] | relative viability EC50 [8] | relative viability EC50 [9] | relative viability EC50 [10] | drug sensitivity score [11] | drug sensitivity score [12] | drug sensitivity score [13] | drug sensitivity score [14] | drug sensitivity score [15]
CCN(CC)CCNC(=O)c1ccc(N)cc1 [procainamide] | 105% | 110% | 93.5% | 99.5% | 98.7% | 95.9% | 97.4% | 92.6% | 94.1% | 106% | 99.9% | 115% | 107% | 102% | 106% | 88.5% | 97.6% | 96.1% | 105% | 101% | 94.9% | 97.9% | 98.8% | 101% | 100% | > 10 µM | > 10 µM | > 10 µM | > 10 µM | > 10 µM | 0 | 0 | 0 | 0 | 0
COc1ccc2nc3cc(Cl)ccc3c(Nc3cc(CN4CCCC4)c(O)c(CN4CCCC4)c3)c2n1 [pyronaridine] | 102% | 111% | 95.5% | 104% | 46.4% | 104% | 102% | 108% | 96.7% | 0.1% | 105% | 87% | 99.8% | 90.5% | -0.1% | 99.2% | 95.8% | 100% | 87.9% | 29.4% | 98.3% | 104% | 97.2% | 102% | 31.7% | 3.54 µM | 2.93 µM | 2.38 µM | 1.87 µM | 3.34 µM | 2.5 | 6 | 7.1 | 5.9 | 3.6
CO[C@H]1/C=C/O[C@@]2(C)Oc3c(C)c(O)c4c(O)c(cc(O)c4c3C2=O)NC(=O)/C(C)=C\C=C\[C@H](C)[C@H](O)[C@@H](C)[C@@H](O)[C@@H](C)[C@H](OC(C)=O)[C@@H]1C [rifamycin-sv] | 89.1% | 90.3% | 106% | 96.5% | 97% | 99.5 ± 3.5% | 96.8 ± 1.3% | 99.4 ± 2.4% | 97.2 ± 2.3% | 99.3 ± 4.4% | 99.2 ± 5.4% | 92.7 ± 7.1% | 110 ± 4% | 88 ± 5.7% | 92.2 ± 7.7% | 102.6 ± 0.71% | 101 ± 1.5% | 103 ± 2.9% | 103 ± 4.1% | 95.8 ± 5.3% | 101 ± 2.6% | 102 ± 3.1% | 100% | 105 ± 2.8% | 100 ± 1.8% | > 10 µM | > 10 µM | > 10 µM | > 10 µM | > 10 µM | 0 | 0 | 0.25 ± 0.35 | 0 | 0
